# Measurements from patent publication US6071927A, “Spiro-piperidine derivatives and their use as therapeutic agents” (Merck Sharp & Dohme Ltd., priority 1996, dated 2000).
# System: NK1 receptor
# Assay: NK1 receptor test by the methods of WO 93/01165, pages 36 to 39
# Type: binding, human
# Conditions: 3(R) compound compared with its 3(S) epimer, Example 124
# Method: The exemplified compounds of this invention were tested by the methods set out at pages 36 to 39 of International Patent Specification No. WO 93/01165.
substance,measurement,value
"(3R,5R,6S)-3-[2-(2,2,-Difluoroethoxy)-5-(difluoromethoxy)phenyl]-6-phenyl-1-oxa-7-(tert-butoxycarbonyl)aza-spiro[4,5]decane [Example 214]",potency relative to epimer,more potent
